By IC50 is commonly meant the concentration at which inhibition is half-maximal. The Ki is a measure of affinity in units of concentration, obtained from inhibition or displacement.

Square brackets hold non-standard residues; d marks the D form. Ends that are not written are not given here. Peptide text beside a SMILES is read from it. * marks the point of attachment. X1 = NC(Cc1ccccc1)C(O)C(=O)*; βAla = NCCC(=O)O

The values below come from patent US7666391B2, “Breast homing peptides and methods of identifying same using aminopeptidase P” (Burnham Institute for Medical Research, priority 2001, dated 2010).

The target of assay [1] is bovine membrane-bound aminopeptidase P. As to conditions: cited from earlier work; for IC50: 0.5 mM arg = Pro-Pro in 0.1 M Hepes, pH 8.0, triplicate.
The target of assay [2] is T1, rat membrane-bound aminopeptidase P (Rattus norvegicus, UniProt Q99MA2).
T1 sequence (Q99MA2 23-650): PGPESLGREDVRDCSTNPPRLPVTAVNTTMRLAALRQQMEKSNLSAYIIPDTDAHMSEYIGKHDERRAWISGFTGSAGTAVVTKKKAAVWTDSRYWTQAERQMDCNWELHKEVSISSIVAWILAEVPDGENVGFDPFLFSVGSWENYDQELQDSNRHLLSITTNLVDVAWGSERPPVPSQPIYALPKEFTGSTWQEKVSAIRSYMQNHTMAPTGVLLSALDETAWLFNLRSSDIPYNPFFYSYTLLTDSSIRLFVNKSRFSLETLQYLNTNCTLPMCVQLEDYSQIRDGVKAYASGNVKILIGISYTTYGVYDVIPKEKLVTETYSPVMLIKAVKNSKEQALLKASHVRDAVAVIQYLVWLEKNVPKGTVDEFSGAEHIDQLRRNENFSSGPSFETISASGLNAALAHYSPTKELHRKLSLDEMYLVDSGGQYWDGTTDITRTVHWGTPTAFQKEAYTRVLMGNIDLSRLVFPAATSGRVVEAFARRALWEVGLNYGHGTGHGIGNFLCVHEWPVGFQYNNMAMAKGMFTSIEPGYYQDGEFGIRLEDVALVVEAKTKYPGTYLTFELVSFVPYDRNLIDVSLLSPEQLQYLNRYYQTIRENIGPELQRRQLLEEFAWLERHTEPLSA
The following applies: cited from earlier work; for IC50: 0.5 mM arg = Pro-Pro in 0.1 M Hepes, pH 8.0, triplicate.

Assay [3] relates to breast tissue. In words: In vivo phage homing: recovery of injected phage from tissues. The following applies: breast tissue as compared to control pancreatic tissue. Also noted: species or system mice. As for the experimental part:
A CX7C library (10^9 plaque forming units) was injected into the tail vein of mice; after seven minutes, the mice were perfused through the heart, and phage rescued from breast tissue. The rescued phage were then amplified and re-injected in four additional consecutive rounds. The number of plaque forming units (pfu) recovered from breast tissue is shown (black bars). As a control, non-recombinant T7 phage were injected (white bars). In round five, the number of pfu of phage recovered from the pancreas also was determined (gray bar).
(§1) The number of pfu recovered from each organ is shown.
A phage display peptide library with the general structure of CX7C, where C is cysteine and X is any amino acid, was constructed in T7 phage essentially as follows. Briefly, complementary oligonucleotides that encoded the random peptide insert as NNK codons, and had 5′EcoRI and 3′HindIII overhangs, were annealed. The resulting double stranded DNA was phosphorylated with T4 polynucleotide kinase (Novagen; Madison, Wis.) and ligated into 1 ug of T7Select415-1b vector arms. The ligated product was directly added to 50 μl of packaging extract and incubated for two hours, yielding 10^8 pfu total recombinants. The recombinants were amplified in 500 ml of liquid culture. […] (Oxford, U.K.: Oxford University Press), 2001.
(§2) In vivo phage selection was performed as described previously with a few modifications. Briefly, mice were anesthetized with avertin and then injected intravenously with 10^9 plaque forming units (pfu) from the CX7C library. Seven minutes after the injection, the mice were perfused through the heart with 10 ml of phosphate buffered saline (PBS). Mammary tissue was then excised, weighed, and homogenized using a Medimachine (Dako, Denmark). The resulting single cells were spun down at 1500 rpm and washed five times with PBS. Phage adherent to the cells were rescued by infecting BL21 bacteria (Novagen), and the phage quantified by plaque assay.

For the next assay, the system named is mitochondrial membranes. Briefly: Mitochondrial swelling assay. As to conditions: at a concentration of 10 μM. The text has this: In one embodiment, the invention provides a conjugate in which the antimicrobial peptide portion promotes disruption of mitochondrial membranes when internalized by eukaryotic cells. In particular, such an antimicrobial peptide preferentially disrupts mitochondrial membranes as compared to eukaryotic membranes. Mitochondrial membranes, like bacterial membranes but in contrast to eukaryotic plasma membranes, have a high content of negatively charged phospholipids. An antimicrobial peptide can be assayed for activity in disrupting mitochondrial membranes using, for example, an assay for mitochondrial swelling (as described in Example I) or another assay well known in the art. […] An antimicrobial peptide that induces significant mitochondrial swelling at, for example, 50 μM, 40 μM, 30 μM, 20 μM, 10 μM, or less, is considered a peptide that promotes disruption of mitochondrial membranes.

The test system of the next assay is aminopeptidase P. In words: Binding of aminopeptidase P cDNA fragment phage to wells coated with […] peptide, with competitors. Set-up: species or system human. As to conditions: 1 mg free peptide; apstatin 10 μg/ml; IgG 10 μg/ml. As for the experimental part: The peptide was synthesized in a Symphony synthesizer (Rainin Instruments; Emeryville, Calif.), cyclized, and purified by HPLC. The peptide was immobilized on a 96 well Reacti-Bind® polystyrene strip plate (Pierce; Rockford, Ill.). The wells were then treated three times×200 μl SuperBlock® blocking buffer (Pierce).
A human breast carcinoma cDNA library on T7 phage obtained from Novagen was amplified in a single step by infecting BLT 5615 bacteria. Phage suspension (100 μl, 10^9 pfu/ml) in PBS was incubated in the wells for one hour; the wells were then washed five times with 200 μl PBS and once with elution buffer (Novagen) to elute phage bound with low and intermediate affinity. Phage bound to the immobilized peptide were subsequently recovered by incubating BLT 5615 bacteria in the wells for 10 minutes at room temperature.

Assay [4] deals with breast tissue. In words: In vivo blocking of breast homing of phage by co-injected agents. The following applies: mice. As for the experimental part:
as §1, §2

Assay [5] has as its target human membrane-bound aminopeptidase P (Homo sapiens, UniProt O43895). The following applies: 0.5 mM arg = Pro-Pro in 0.1 M Hepes, pH 8.0; triplicate; cited from earlier work.
For assay [6], the target named is monkey membrane-bound aminopeptidase P. The following applies: 0.5 mM arg = Pro-Pro in 0.1 M Hepes, pH 8.0; triplicate; cited from earlier work.

human membrane-bound aminopeptidase P, sequence (O43895 22-649): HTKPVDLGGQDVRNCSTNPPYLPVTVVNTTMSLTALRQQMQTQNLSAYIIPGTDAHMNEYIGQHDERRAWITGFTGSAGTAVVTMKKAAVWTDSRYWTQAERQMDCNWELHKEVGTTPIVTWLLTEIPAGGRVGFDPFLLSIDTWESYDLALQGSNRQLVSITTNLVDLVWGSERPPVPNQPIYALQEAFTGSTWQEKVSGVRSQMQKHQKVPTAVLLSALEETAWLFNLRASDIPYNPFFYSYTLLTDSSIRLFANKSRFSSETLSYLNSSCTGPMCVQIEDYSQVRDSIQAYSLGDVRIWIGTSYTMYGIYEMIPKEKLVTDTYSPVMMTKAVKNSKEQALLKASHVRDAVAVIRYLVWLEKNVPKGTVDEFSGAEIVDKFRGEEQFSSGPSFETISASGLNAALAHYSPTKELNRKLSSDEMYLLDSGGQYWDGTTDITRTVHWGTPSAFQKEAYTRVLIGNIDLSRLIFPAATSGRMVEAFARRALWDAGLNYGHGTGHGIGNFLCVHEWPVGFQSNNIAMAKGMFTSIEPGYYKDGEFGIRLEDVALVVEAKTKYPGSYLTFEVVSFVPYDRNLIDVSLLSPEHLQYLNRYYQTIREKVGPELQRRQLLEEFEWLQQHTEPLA

With `CC(C)C[C@@H](N)[C@@H](O)C(=O)N1CCC[C@H]1C(=O)N[C@@H](C)C(N)=O` [Compound 7], the half-maximal inhibitory concentration (IC50) in assay [1] was 50 µM; in assay [2], 19 µM.
For CRTS [CRTS (SEQ ID NO: 4)], the “selective homing identified by in vivo panning” value (“selective homing identified” below) in the assay on breast tissue [3] was “selectively homing to breast tissue”.
Consider `C[C@H](NC(=O)[C@@H]1CCCN1C(=O)C1CCCCC1C(=O)NO)C(N)=O` (single isomer, unassigned) [Compound 12], for which the IC50 in assay [1] is 50 µM; in assay [2] it was 37 µM.
For `CC(C)C[C@@H](N)[C@H](O)C(=O)N1CCC[C@H]1C(=O)N[C@@H](C)C(N)=O` [Compound 5], the IC50 is 4.5 µM in assay [1] and 0.56 µM in assay [2].
For the molecule D(KLAKLAK)2, in the assay with mitochondrial membranes, the mitochondrial swelling result is “marked mitochondrial swelling”.
For the molecule `CC(C)C[C@H](N)[C@@H](O)C(=O)N1CCC[C@H]1C(=O)N[C@@H](C)C(N)=O` [Compound 6], the IC50 was 2.1 µM in assay [1] and 0.31 µM in assay [2].
For `CC(NC(=O)C1CCCN1C(=O)C1CCCN1C(=O)C(O)C(N)Cc1ccccc1)C(=O)NCCC(=O)NC(CS)C(N)=O` (stereo not shown) [Compound 4] (X1-PPA[βAla]C-NH2; configuration not given here), the IC50 in assay [2] is 0.66 µM.
Take “CPGPEGAGC (also: cyclized (mode not given here)) [breast homing cyclic peptide, synthesized, cyclized and purified by HPLC]”: the “effect on binding of aminopeptidase P encoding phage to insolubilized CPGPEGAGC peptide” value in the assay with aminopeptidase P is on record as “blocked”. For the same molecule, the “effect of coinjection on recovery of CPGPEGAGC phage from breast tissue” value in the assay on breast tissue [4] (0.5 ml of 2 mg/ml free peptide coinjected) was “markedly reduced”. Besides, in the assay on breast tissue [4] (anti-aminopeptidase P antiserum or 1 mg free peptide), the “effect on breast homing / recovery of CRSS phage” value is “no effect”. In addition, the “selective homing identified” value in the assay with breast tissue [3] is “selectively homing to breast tissue”.
As for `C[C@H](NC(=O)[C@@H]1CCCN1C(=O)[C@@H]1CCCN1C(=O)[C@@H](O)[C@H](N)Cc1ccccc1)C(N)=O` [Compound 1, apstatin], in the assay on aminopeptidase P, the “effect on binding of aminopeptidase P encoding phage to insolubilized CPGPEGAGC peptide” value is recorded as “blocked”. Moreover, the results for the IC50 in assay [1] and in assay [2] were 9.4 µM and 4.1 µM, respectively. Also, the Ki is 7.8 µM in assay [1] (in brackets in the IC50 cell of Table 2) and 2.6 µM in assay [2] (Yoshimoto et al. 1994).
`CC(NC(=O)C1CCCN1C(=O)C1CCCC1S)C(N)=O` (stereo not shown) [Compound 10]: the IC50 is 3.4 µM in assay [2] and 29 µM in assay [5].
Regarding CRSS [CRSS (SEQ ID NO: 3)], the “selective homing identified” value in the assay with breast tissue [3] is listed as “selectively homing to breast tissue”.
On to `CC(C)C[C@H](N)[C@H](O)C(=O)N1CCC[C@H]1C(=O)N[C@@H](C)C(N)=O` [Compound 8], for which the figures for the IC50 in assay [1] and in assay [2] were 470 µM and 100 µM, respectively.
Take `C[C@H](NC(=O)[C@@H]1CCCN1C(=O)C1CCCC1S)C(N)=O` (single isomer, unassigned) [Compound 11]: the IC50 was 300 µM in assay [6], 300 µM in assay [1], 150 µM in assay [2] and 390 µM in assay [5].
In the case of `NC(=O)C1CCCN1C(=O)C1CCCN1C(=O)C(O)C(N)Cc1ccccc1` (stereo not shown) [Compound 3], the IC50 in assay [1] is 1300 µM; in assay [2], 390 µM.
